According to patent US20240180921A1, “CDK8/19 INHIBITORS FOR THE TREATMENT OF CYTOKINE STORM” (University of South Carolina, priority 2021, published 2024):

What was measured:
48 human cytokines [1] = assay: LPS-induced human cytokines in plasma of humanized mice (Human Cytokine 48-Plex Discovery Assay), Example 3; format: in vivo; settings: for induction of human proinflammatory cytokines by LPS: 15u 30 mg/kg p.o. or BI-1347 10 mg/kg p.o., LPS 1 mg/kg i.p., plasma 6 hrs after LPS
Description: Mice were randomized into 6 groups (n=4-5), Group 1 being untreated control, Group 2 receiving 15u (a.k.a. SNX) (30 mg/kg p.o., administered as in example 2), Group 3 receiving LPS (1 mg/kg i.p.), Group 4 receiving LPS plus 15u administered 1 hr before LPS, Group 5 receiving LPS plus 15u administered 0.5 hr after LPS, and Group 6 receiving LPS plus CDK8/19 inhibitor BI-1347 (28) (10 mg/kg dissolved in 30% Propylene Glycol/70% PEG-400, p.o.) administered 1 hr before LPS. Mice were euthanized 6 hrs after LPS dosing and terminal blood samples were collected for cytokine analysis. As in Example 2, the effects of LPS and 15u on the expression of 48 human cytokines were measured using Human Cytokine 48-Plex Discovery Assay (Eve Technologies) using plasma samples at 1:100 dilution. The results of this analysis are shown in FIG. 5 for those cytokines that were induced by LPS. To assure more accurate assessment of effects of CDK8/19 inhibition on LPS-induced cytokines, 4 LPS-treated animals with low serum level (below 100 pg/mL) of IL-10, the cytokine whose LPS-mediated induction is not decreased by CDK8/19 inhibition, were excluded from the analysis (the low levels of cytokines in such animals are possibly due to insufficient administration of LPS). In this study, fewer cytokines (19 of 48) were induced by LPS than in Example 2, with many cytokines showing apparently higher expression levels in untreated mice possibly reflecting an inflammatory process that could have developed in humanized mice at the late time point (25-26 weeks) after the transplantation of CD34+ hematopoietic stem cells. Nevertheless, as in example 2, the induction of most of the LPS-induced cytokines was decreased by CDK8/19 inhibitor treatment (FIG. 5), including G-CSF, IFN-γ, IL-1 (α and β), IL-6, IL-8, MIG/CXCL9, MCP-1, MIP-1β and TNF (α and β) and IP-10. Among LPS-induced cytokines, only anti-inflammatory IL-10 was induced to a greater degree with than without CDK8/19 inhibitor treatment, an indication of anti-inflammatory activity. […]

[2] = tested on: mouse cytokines: IL-1β, IL-6, IL-10, MCP-1 and TNF-α; assay: LPS-induced cytokine expression in plasma of C57BL/6 mice (MSD U-plex custom panel); format: in vivo, C57BL/6 male mice; settings: 30 mg/kg oral gavage 2 hrs prior to LPS 10 mg/kg i.p.; plasma 2 hrs and 6 hrs after LPS
Description: Cytokine storm was induced in C57BL/6 male mice by intraperitoneal (i.p.) injection of LPS (10 mg/kg). Two groups of LPS-treated mice (n=5) received 30 mg/kg 15u dissolved in 30% Propylene Glycol, 70% PEG-400 or vehicle control (5 mice per group), via oral gavage 2 hrs prior to LPS dosing. Blood was collected immediately before LPS dosing, 2 hrs after LPS and 6 hrs after LPS (at which time point the animals were euthanized). Plasma samples (1:100 dilution for 2 hr and 6 hr samples, 1:5 dilution for pre-LPS samples) were used to analyze the cytokines with the MSD U-plex custom panel for the following mouse cytokines: IL-1β, IL-6, IL-10, MCP-1 and TNF-α.

48 human cytokines [3] = assay: LPS-induced human cytokines in plasma of humanized mice (Human Cytokine 48-Plex Discovery Assay), Example 2; format: in vivo; settings: plasma 6 hrs after LPS
From the text: (§1) To test the effect of CDK8/19 inhibition on LPS-induced cytokine expression in human immune cells, we carried out a study on humanized mice transplanted with human hematopoietic stem cells; such mice contain human blood cells of myeloid and lymphoid lineages as well as mouse blood cells. We have used CIEA NOG-EXL mice (Taconic model #13395) engrafted with human umbilical cord blood-derived CD34+ hematopoietic stem cells 21 weeks before the study. All the mice were female, 25-27 weeks old, and had >45% hCD45+ cells in blood. Eight mice were treated with 1 mg/kg LPS i.p.; this dose was selected based on the finding of (38) that 12.5 μg (˜0.5 mg/kg) produced stronger cytokine induction than 50 μg (˜2 mg/kg) in humanized mice. The first group of LPS-treated mice (n=3) (G1) received vehicle alone by oral gavage 1 hr before LPS, the second group (n=3) received 15u at 30 mg/kg by oral gavage 1 hr before LPS, and the third group (n=2) (G3) received 15u at 30 mg/kg by oral gavage 0.5 hrs after LPS. Blood samples were collected from each mouse one week before LPS dosing. Mice were euthanized 6 hrs after LPS dosing and terminal blood samples were collected for cytokine analysis; in addition, spleens were collected for RNA analysis.
The effects of LPS and 15u on the expression of 48 human cytokines were measured using Human Cytokine 48-Plex Discovery Assay (Eve Technologies) using plasma samples at 1:100 dilution. […] The results of this analysis are shown in FIG. 2 for 33 of 48 cytokines that were induced by LPS>2-fold (cytokine plots are shown in the order of fold induction by LPS). […] These included 14 mediators of cytokine storm listed in Table 1: GM-CSF, IFN-γ, IL-1 (α and β), IL-6, IL-8, IL-12 (p40 and p70), IL-18, MIG/CXCL9, MIP-1 (α and β) and TNF (α and β).

32 mouse cytokines = assay: LPS-induced mouse cytokines in plasma of humanized mice (Mouse Cytokine 32-Plex Discovery Assay), Example 2; format: in vivo, humanized CIEA NOG-EXL mice; settings: 30 mg/kg p.o. 1 hr before LPS; plasma 6 hrs after LPS
From the text: as §1
We have also used the same plasma samples (at 1:100 dilution) to measure the expression of 32 mouse cytokines using Mouse Cytokine 32-Plex Discovery Assay (Eve Technologies).

[4] = tested on: human cytokines associated with cytokine storm (Table 1); assay: RNA-Seq of spleens of LPS-treated humanized mice, human cytokines associated with cytokine storm; format: in vivo, humanized CIEA NOG-EXL mice (human transcripts); settings: 6 hrs after LPS
From the text: as §1
(§2) RNA from spleens of mice of G1-3, euthanized 6 hrs after LPS dosing, was analyzed by RNA-Seq. […]

[5] = tested on: mouse cytokines associated with cytokine storm (Table 1); assay: RNA-Seq of spleens of LPS-treated humanized mice, mouse cytokines associated with cytokine storm; format: in vivo, humanized CIEA NOG-EXL mice (mouse transcripts); settings: 6 hrs after LPS
From the text: as §1, §2

panel of 468 kinases = settings: at 2000 nM, cited from earlier work

Structure (SMILES)	induction of human proinflammatory cytokines by LPS (48 human cytokines [1])	effect on LPS-induced expression of the assayed cytokines (IL-1β, IL-6, IL-10, MCP-1, TNF-α) [2]	number of the most strongly LPS-induced human cytokines whose induction was suppressed (48 human cytokines [3]; 30 mg/kg oral gavage 1 hr before LPS 1 mg/kg i.p.)	LPS-induced human IP-10 (48 human cytokines [3]; 30 mg/kg p.o. 1 hr before LPS)	LPS-induced human MCP-1 (48 human cytokines [3]; 30 mg/kg p.o. 1 hr before LPS)	LPS-induced human anti-inflammatory IL-10 (48 human cytokines [3]; 30 mg/kg p.o. 1 hr before LPS)	over-induction of human IL-10 (48 human cytokines [3]; 30 mg/kg p.o. 1 hr before LPS)	induction of 14 mediators of cytokine storm: GM-CSF, IFN-γ, IL-1 (α and β), IL-6, IL-8, IL-12 (p40 and p70), IL-18, MIG/CXCL9, MIP-1 (α and β), TNF (α and β) (48 human cytokines [3]; human cytokines, 30 mg/kg p.o. 1 hr before LPS)	LPS-induced mouse IL-7 (32 mouse cytokines)	LPS-induced mouse IL-10 (32 mouse cytokines)	effect on LPS-induced mouse cytokines (27 of 32 induced) (32 mouse cytokines)	number of human cytokines with decreased RNA amounts in spleen ([4]; 15u 30 mg/kg p.o. administered after LPS (G3) vs LPS alone (G1))	number of human cytokines with decreased RNA amounts in spleen ([4]; 15u 30 mg/kg p.o. administered before LPS (G2) vs LPS alone (G1))	number of mouse cytokines with decreased RNA in spleen ([5]; 15u-treated G2 or G3 relative to G1)	number of mouse cytokines (including TNF and IL-10) with elevated RNA in spleen ([5]; G2 and especially G3 relative to G1)	suppression of proinflammatory cytokine induction, 15u administered 0.5 hours after LPS compared with 1 hour before LPS (48 human cytokines [1]; 30 mg/kg p.o., in most cases)	S(35) S-score (panel of 468 kinases; S(#)=(number of non-mutant kinases with % Ctrl<#)/(number tested))	S(10) S-score (panel of 468 kinases)
CN(C)C(=O)Cn1cc(-c2ccc(-c3cncc4ccccc34)cc2)cn1 [BI-1347, 2-(4-(4-(isoquinolin-4-yl)phenyl)-1H-pyrazol-1-yl)-N,N-dimethylacetamide, reference compound]	broadly suppressed																	
CN(C)C(=O)c1ccc(N2CCCN(c3ccnc4sc(C(N)=O)c(N)c34)CC2)cc1 [15u, 3-amino-4-(4-(4 (dimethylcarbamoyl)phenyl)-1,4-diazepan-1-yl)thieno[2,3-b]pyridine-2-carboxamide]	suppressed	no significant effect	24 of 27	not inhibited	not inhibited	only borderline inhibition	not over-induced	suppressed	weakly inhibited	over-induced	most of them were unaffected	15 of 26	18 of 26	3 of 27	7	stronger	less than 0.02	< 0.004
